# Measured values published in US10076519B2 (CYTOKINETICS, INC., priority 2010, dated 2018).
# System: rabbit skeletal myofibrils (fast skeletal myofibrils)
# Assay: Activation of fast skeletal myofibrils (PUMA assay, PK/LDH-coupled ATPase at pCa25)
# Assay type: biochemical
# Conditions: AC1.4 determined according to the procedure of Example 39; reported as class symbols
# Summary of the method: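 ATPase activity of Triton-washed rabbit skeletal myofibrils, roughly 90% fast fibres, tracked by NADH loss at 340 nm through a PK/LDH-coupled ADP-regenerating system. Calcium set to 25% of maximal activity (pCa25), in PIPES 12 mM pH 6.8 with 2 mM MgCl2 and 1 mM DTT; AC1.4 reported.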
row,Compound,Mean AC1.4
1,CC(=O)Nc1nc(-c2ccc(NCC(C)(C)c3ccc(F)cc3)nn2)c[nH]1 [N-[4-(6-{[2-(4-fluorophenyl)-2-methylpropyl]amino}pyridazin-3-yl)imidazol-2-yl]acetamide],C (C=10-20 uM)
2,COC(=O)Nc1n[nH]c2ccc(-c3ccc(NCC(C)(C)c4ccc(F)cc4)nn3)cc12 [N-[5-(6-{[2-(4-fluorophenyl)-2-methylpropyl]amino}pyridazin-3-yl)(1H-indazol-3-yl)]methoxycarboxamide],A (A=<1 uM)
3,CC(=O)Nc1n[nH]c2ccc(-c3ccc(NCC(C)(C)c4ccc(F)cc4)nn3)cc12 [N-[5-(6-{[2-(4-fluorophenyl)-2-methylpropyl]amino}pyridazin-3-yl)-1H-indazol-3-yl]acetamide],A (A=<1 uM)
4,CC(=O)Nc1ccc(-c2ccc(NCC(C)(C)c3ccc(F)cc3)nn2)cn1 [N-[5-(6-{[2-(4-fluorophenyl)-2-methylpropyl]amino}pyridazin-3-yl)-2-pyridyl]acetamide],B (B=1-10 uM)
5,CC(=O)Nc1nc2cc(-c3ccc(NCC(C)(C)c4ccc(F)cc4)nn3)ccc2[nH]1 [N-[6-(6-{[2-(4-fluorophenyl)-2-methylpropyl]amino}pyridazin-3-yl)benzimidazol-2-yl]acetamide],A (A=<1 uM)
6,COC(=O)NCc1ccc(NCC(C)(C)c2ccc(F)cc2)nn1 [N-[(6-{[2-(4-fluorophenyl)-2-methylpropyl]amino}pyridazin-3-yl)methyl]methoxycarboxamide],D (D=>20 uM)
7,CC(C)(C)OC(=O)NCCCNC(=O)c1cccc(-c2ccc(NCC(C)(C)c3ccc(F)cc3)nn2)c1 [N-{3-[(tert-butoxy)carbonylamino]propyl}[3-(6-{[2-(4-fluorophenyl)-2-methylpropyl]amino}pyridazin-3-yl)phenyl]carboxamide],B (B=1-10 uM)
8,CC(=O)NCc1ccc(-c2ccc(NCC(C)(C)c3ccc(F)cc3)nn2)cn1 [N-{[5-(6-{[2-(4-fluorophenyl)-2-methylpropyl]amino}pyridazin-3-yl)-2-pyridyl]methyl}acetamide],C (C=10-20 uM)
9,CC(C)(CNc1ccc(-c2cccnc2)nn1)c1ccccc1Cl [[2-(2-chlorophenyl)-2-methylpropyl](6-(3-pyridyl)pyridazin-3-yl)amine],B (B=1-10 uM)
10,CC(C)(CNc1ccc(-c2cncnc2)nn1)c1ccccc1Cl [[2-(2-chlorophenyl)-2-methylpropyl](6-pyrimidin-5-ylpyridazin-3-yl)amine],B (B=1-10 uM)
11,CC(C)(CNc1ccc(-c2ccccn2)nn1)c1ccc(F)cc1 [[2-(4-fluorophenyl)-2-methylpropyl](6-(2-pyridyl)pyridazin-3-yl)amine],B (B=1-10 uM)
12,CC(C)(CNc1ccc(-c2cccnc2)nn1)c1ccc(F)cc1 [[2-(4-fluorophenyl)-2-methylpropyl](6-(3-pyridyl)pyridazin-3-yl)amine],B (B=1-10 uM)
13,"CC(C)(CNc1ccc(C2=CCNCC2)nn1)c1ccc(F)cc1 [[2-(4-fluorophenyl)-2-methylpropyl](6-(4-1,2,5,6-tetrahydropyridyl)pyridazin-3-yl)amine]",B (B=1-10 uM)
14,CC(C)(CNc1ccc(-c2ccccc2)nn1)c1ccc(F)cc1 [[2-(4-fluorophenyl)-2-methylpropyl](6-phenylpyridazin-3-yl)amine],A (A=<1 uM)
15,CC(C)(CNc1ccc(-c2cc[nH]n2)nn1)c1ccc(F)cc1 [[2-(4-fluorophenyl)-2-methylpropyl](6-pyrazol-3-ylpyridazin-3-yl)amine],B (B=1-10 uM)
16,CC(C)(CNc1ccc(-c2cn[nH]c2)nn1)c1ccc(F)cc1 [[2-(4-fluorophenyl)-2-methylpropyl](6-pyrazol-4-ylpyridazin-3-yl)amine],B (B=1-10 uM)
17,"CC(C)(CNc1ccc(-c2cnc3[nH]ncc3c2)nn1)c1ccc(F)cc1 [[2-(4-fluorophenyl)-2-methylpropyl](6-pyrazolo[5,4-b]pyridin-5-ylpyridazin-3-yl)amine]",B (B=1-10 uM)
18,"CC(C)(CNc1ccc(-c2cnc3cc[nH]c3c2)nn1)c1ccc(F)cc1 [[2-(4-fluorophenyl)-2-methylpropyl](6-pyrrolo[3,2-b]pyridin-6-ylpyridazin-3-yl)amine]",A (A=<1 uM)
19,"CC(C)(CNc1ccc(-c2ccc3[nH]nc(NCC(F)(F)F)c3c2)nn1)c1ccc(F)cc1 [[2-(4-fluorophenyl)-2-methylpropyl](6-{3-[(2,2,2-trifluoroethyl)amino](1H-indazol-5-yl)}pyridazin-3-yl)amine]",A (A=<1 uM)
20,CC(C)Nc1n[nH]c2ccc(-c3ccc(NCC(C)(C)c4ccc(F)cc4)nn3)cc12 [[2-(4-fluorophenyl)-2-methylpropyl](6-{3-[(methylethyl)amino](1H-indazol-5-yl)}pyridazin-3-yl)amine],A (A=<1 uM)
21,Cn1ncc2ccc(-c3ccc(NCC(C)(C)c4ccc(F)cc4)nn3)cc21 [[2-(4-fluorophenyl)-2-methylpropyl][6-(1-methyl(1H-indazol-6-yl))pyridazin-3-yl]amine],B (B=1-10 uM)

# Same assay, conditions: median AC1.4 class, procedure of Example 39
row,Compound,Mean AC1.4
1,CC(=O)Nc1nccc(-c2ccc(NCC3(c4ncccc4F)CCC3)nn2)n1 [N-{4-[6-({[(3-fluoro-2-pyridyl)cyclobutyl]methyl}ami-no)pyridazin-3-yl]pyrimidin-2-yl}acetamide],C (C=10-20 uM)

# Same assay, conditions: median AC1.4 reported as class; procedure of Example 39
row,Compound,Mean AC1.4
1,"CC(=O)NCc1nc(-c2ccc(NCC3(c4ncccc4F)CCC3)nn2)cs1 [N-({4-[6-({[(3-fluoro-2-pyridyl)cyclobutyl]methyl}ami-no)pyridazin-3-yl]-1,3-thiazol-2-yl}methyl)acetamide]",D (D=>20 uM)
2,CC(=O)NCc1ccc(F)c(-c2ccc(NC[C@]3(c4ncccc4F)C[C@H](F)C3)nn2)c1 [N-({4-fluoro-3-[6-({[3-fluoro-1-(3-fluoro(2-pyridyl))cyclobutyl]methyl}ami-no)pyridazin-3-yl]phenyl}methyl)acetamide],B (B=1-10 uM)
3,"CC(=O)NCc1ncc(-c2ccc(NCC3(c4ncccc4F)CCC3)nn2)s1 [N-({5-[6-({[(3-fluoro-2-pyridyl)cyclobutyl]methyl}ami-no)pyridazin-3-yl]-1,3-thiazol-2-yl}methyl)acetamide]",B (B=1-10 uM)
4,"NC(=O)Cc1csc(NC(=O)c2ccc(NCC3(c4ncccc4F)CCC3)nn2)n1 [N-[4-(carbamoylmethyl)(1,3-thiazol-2-yl)][6-({[(3-fluoro(2-pyridyl))cyclobutyl]methyl}ami-no)pyridazin-3-yl]carboxamide]",A (A=<1 uM)
5,"NC(=O)Cc1nnc(NC(=O)c2ccc(NCC3(c4ncccc4F)CCC3)nn2)s1 [N-[5-(carbamoylmethyl)(1,3,4-thiadiazol-2-yl)][6-({[(3-fluoro(2-pyridyl))cyclobutyl]methyl}ami-no)pyridazin-3-yl]carboxamide]",D (D=>20 uM)
6,O=C(NC1CNC1)c1cccc(-c2ccc(NC[C@]3(c4ncccc4F)C[C@H](F)C3)nn2)c1 [N-azetidin-3-yl{3-[6-({[3-fluoro-1-(3-fluoro(2-pyridyl))cyclobutyl]methyl}ami-no)pyridazin-3-yl]phenyl}carboxamide],B (B=1-10 uM)
7,O=C(NC1CCC1)c1ccc(F)c(-c2ccc(NC[C@]3(c4ncccc4F)C[C@H](F)C3)nn2)c1 [N-cyclobutyl{4-fluoro-3-[6-({[3-fluoro-1-(3-fluoro(2-pyridyl))cyclobutyl]methyl}ami-no)pyridazin-3-yl]phenyl}carboxamide],A (A=<1 uM)
8,O=C(NC1CC1)c1cccc(-c2ccc(NC[C@]3(c4ncccc4F)C[C@H](F)C3)nn2)c1 [N-cyclopropyl{3-[6-({[3-fluoro-1-(3-fluoro(2-pyridyl))cyclobutyl]methyl}ami-no)pyridazin-3-yl]phenyl}carboxamide],B (B=1-10 uM)
9,O=C(NC1CC1)c1ccc(F)c(-c2ccc(NC[C@]3(c4ncccc4F)C[C@H](F)C3)nn2)c1 [N-cyclopropyl{4-fluoro-3-[6-({[3-fluoro-1-(3-fluoro(2-pyridyl))cyclobutyl]methyl}ami-no)pyridazin-3-yl]phenyl}carboxamide],A (A=<1 uM)
10,CCNC(=O)c1cc(-c2ccc(NC[C@]3(c4ncccc4F)C[C@H](F)C3)nn2)ccc1F [N-ethyl{2-fluoro-5-[6-({[3-fluoro-1-(3-fluoro(2-pyridyl))cyclobutyl]methyl}ami-no)pyridazin-3-yl]phenyl}carboxamide],C (C=10-20 uM)
11,CCNC(=O)c1ccc(F)c(-c2ccc(NC[C@]3(c4ncccc4F)C[C@H](F)C3)nn2)c1 [N-ethyl{4-fluoro-3-[6-({[3-fluoro-1-(3-fluoro(2-pyridyl))cyclobutyl]methyl}ami-no)pyridazin-3-yl]phenyl}carboxamide],B (B=1-10 uM)
12,"COC(=O)NC1CCc2sc(-c3ccc(NCC4(c5ncccc5F)CCC4)nn3)nc21 (stereo not shown) [N-{2-[6-({[(3-fluoro(2-pyridyl))cyclobutyl]methyl}ami-no)pyridazin-3-yl](4,5,6-trihydrocyclopenta[2,3-d]1,3-thiazol-4-yl)}methoxycarboxamide]",D (D=>20 uM)
13,CNC(=O)Nc1ccc(-c2ccc(NC[C@]3(c4ncccc4F)C[C@H](F)C3)nn2)c(F)c1 [N-{3-fluoro-4-[6-({[3-fluoro-1-(3-fluoro(2-pyridyl))cyclobutyl]methyl}ami-no)pyridazin-3-yl]phenyl}(methylamino)carbox-amide],A (A=<1 uM)
14,CNC(=O)Nc1ccc(-c2ccc(NC[C@]3(c4ncccc4F)C[C@H](F)C3)nn2)cc1 [N-{4-[6-({[3-fluoro-1-(3-fluoro(2-pyridyl))cyclobutyl]methyl}ami-no)pyridazin-3-yl]phenyl}(methylamino)carbox-amide],A (A=<1 uM)
15,CNC(=O)N(C)c1ccc(-c2ccc(NC[C@]3(c4ncccc4F)C[C@H](F)C3)nn2)cc1 [N-{4-[6-({[3-fluoro-1-(3-fluoro(2-pyridyl))cyclobutyl]methyl}ami-no)pyridazin-3-yl]phenyl}-N-methyl(methylamino)carboxamide],D (D=>20 uM)
